Laboratory results published in paper PMC8467576, “Novel Ubiquitin Specific Protease-13 Inhibitors Alleviate Neurodegenerative Pathology” (Metabolites, 2021).

Columns and labels:
Type in all cases: in vivo, mouse
[1] = test system: alpha-synuclein ubiquitination; test: Alpha-synuclein ubiquitination in TgA53T mice (IP/WB, co-localization immunostaining)
Protocol: Male and female TgA53T mice (15 months old) were treated daily with intraperitoneal injection of DMSO versus 10 mg/kg or 40 mg/kg BK50118-C for 7 days. […] ELISA measurement of alpha-synuclein in the same extracts (Figure 4C) confirmed that human alpha-synuclein was reduced by about 30% (10 mg/kg) and 56% (40 mg/kg), respectively (Figure 4C).
(§1) To ascertain the mechanistic effects of BK50118-C on alpha-synuclein clearance, we performed immunostaining in striatum of TgA53T mice. […] We also performed the staining of tyrosine hydroxylase (TH) in the striatum of TgA53T mice. TH is the enzyme responsible for catalyzing the rate limiting step in synthesis of L-3,4-dihydroxyphenylalanine(L-DOPA) which is a precursor for dopamine (DA). Staining of TH will help to evaluate the status of DA producing neurons in the SN and their terminals in the striatum.
(§2) BK50118-C is one of novel small molecule inhibitors of USP13 synthesized in our laboratory. For BK50118-C treatment, approximately 15 months old (±1 month) male and female TgA53T mice were treated with intraperitoneal injection of vehicle (DMSO) or BK50118-C at the daily dosage of 10 mg/Kg or 40 mg/Kg for 7 days. […]
Mouse brain tissues were homogenized in 1x STEN buffer, and the soluble fraction was isolated as indicated above. […] The supernatant was recovered and quantified by protein assay, and a total of 300 µg protein was incubated overnight at 4 °C with primary anti-alpha-synuclein (1:200, Thermofisher, AHB0261) mouse antibodies or anti-ubiquitin (1:100) (Thermo Fisher, PA3–16717, Rockford, IL, USA) antibodies in the presence of sepharose G and an IgG control with primary antibodies. […]
(§3) Immunohistochemistry was performed on the 20 µm thick brain sections for evaluation of ubiquitination of alpha-synuclein. […] The optic densitometry of co-localization of ubiquitin with alpha-synuclein was measured using Image J. Tyrosine hydroxylase (TH) is the limiting enzyme in DA synthesis, so probing for TH+ neurons will help to evaluate the status of DA producing neurons in the SN and their terminals in the striatum. […]

[2] = test system: ptau396; test: p-Tau ser396 ELISA in TgA53T mice; conditions: 10 mg/Kg or 40 mg/Kg I.P. daily for 7 days
Protocol: Therefore, we also measured tau levels. There was no effect on murine tau levels (Figure 4D).
(§4) BK50118-C is one of novel small molecule inhibitors of USP13 synthesized in our laboratory. For BK50118-C treatment, approximately 15 months old (±1 month) male and female TgA53T mice were treated with intraperitoneal injection of vehicle (DMSO) or BK50118-C at the daily dosage of 10 mg/Kg or 40 mg/Kg for 7 days. Animals were age and sex-matched in their respective treatment cohorts. All animals were sacrificed after treatment. All experiments were conducted in full compliance with the recommendations of Georgetown University Animal Care and Use Committee. These experiments were conducted under animal protocol No. 2016-1194 titled, Misfolded Protein Clearance in Neurodegeneration, which was approved by the Georgetown University IACUC. Protocol Information: IACUC Protocol Number: 2016-1194. Protocol Approval Date: 14 September 2020 Expiration Date: 14 September 2023.
The ELISA for USP13 (MyBioSource, Cat # MBS9335287, San Diego, CA, USA), Human alpha-synuclein (Biolegend, Cat # 844101, San Diego, CA, USA) and specific p-Tau ser396 (Invitrogen, KHB7031, Waltham, MA, USA) were performed on cell or brain tissue extracts as described above according to manufacturers’ protocol.

[3] = test system: Nissl+ cells; test: Nissl staining neuron counts in TgA53T mice; conditions: 40 mg/Kg I.P. daily for 7 days, vs DMSO
Protocol: as §4
Nissl staining was performed using FD Cresyl Violet Solution™ Regular Strength (FD NeuroTechnologies, Cat PS102-01, Columbia, MD, USA) as per manufacturer’s instructions. Silver staining was performed using FD NeuroSilver™ (FD NeuroTechnologies, Cat PK301,) as per manufacturer’s instructions.
Suppl Figure S3. BK50118-C improved cell survivals in TgA53T mice. Male and female TgA53T mice were treated with intraperitoneal injection of vehicle or BK50118-C at the daily dosage of 40 mg/Kg for 7 days. […]
substantia nigra (SN) H) compared to corresponding vehicles A), D) and G), verified […]
(1 picture or pasted object on this page, not shown here) […]
by quantification of Nissl+ cells in cortex C), striatum F) and SN I). Asterisk indicates statistic significant difference vs vehicle. * p<0.05 vs vehicle. Two-tailed student’s t test was used for analysis. N=3-4 mice per group. All values presented as Mean±SD.

[4] = test system: tyrosine hydroxylase (TH); test: Tyrosine hydroxylase staining in striatum of TgA53T mice; conditions: 40 mg/Kg I.P. daily for 7 days, vs DMSO
Source text: as §1
as §2, with “days. Animals were age and sex-matched in their respective treatment cohorts. All animals were sacrificed after treatment.” for “days.”
as §3

[5] = midbrain extracts, 40 mg/kg vs DMSO and 10 mg/kg, 7 days

## Fc1ccc2nccc(OCc3ccccc3)c2c1 [BK50118-C, 4-benzyloxy-6-fluoroquinoline]
[1]; [5]
  ubiquitination after immunoprecipitation of alpha-synuclein followed by ubiquitin WB: increased ubiquitination
  ubiquitination of alpha-synuclein after immunoprecipitation of ubiquitin followed by alpha-synuclein WB: increased ubiquitination of alpha-synuclein
[1]; striatum, 40 mg/Kg I.P. daily for 7 days, vs DMSO
  increase in alpha-synuclein-ubiquitin co-localization (optic density): 130%
[2]
  effect on murine tau levels (ptau396 ELISA): no effect
[3]; cortex
  neuron counts (Nissl+ cells): significantly increased
[3]; striatum
  neuron counts (Nissl+ cells): significantly increased
[3]; substantia nigra (SN)
  neuron counts (Nissl+ cells): significantly increased
[4]
  tyrosine hydroxylase (TH) staining: did not show any noticeable effects
